{"source": "patent US9993494B2", "about": "“Compositions and methods for treating fibrotic disease” (eFFECTOR Therapeutics, Inc., priority 2014, dated 2018)", "system": "normal human lung fibroblasts", "assay": "Ribosomal profiling: translational efficiency in TGFβ-treated fibroblasts", "format": "cell-based", "conditions": "TGFβ-treated fibroblasts", "protocol": "Ribosomal profiling allows for measurement of changes in transcription and translation on a genome-wide basis accompanying TGFβ-dependent transformation of fibroblasts to myofibroblasts. Ribosomal profiles of the TGFβ-treated fibroblasts from Example 1 (about 6×10^6 cells/10 cm plate) were prepared and analyzed for changes in translational efficiencies with respect to potential disease-associated cellular changes accompanying this TGFβ-induced transformation.\nBriefly, cells were washed with cold PBS supplemented with cycloheximide and lysed with 1× mammalian cell lysis buffer for 10 minutes on ice. Lysates were clarified by centrifugation for 10 minutes at 14,000 rpm and supernatants were collected. Cell lysates were processed to generate ribosomal protected fragments and total mRNA according to the instructions included with the ARTseq Ribosome Profiling Kit (Illumina, San Diego, Calif.). Sequencing of total RNA (RNA) and of ribosome-protected fragments of RNA (RPF) was carried out using RNA-Seq methodology according to the manufacturer's instructions (Illumina). To analyze the ribosomal profiles, RNA-Seq reads were processed with tools from the FASTX-Toolkit (fastq_quality_trimmer, fastx_clipper and fastx_trimmer). Unprocessed and processed reads were evaluated for a variety of quality measures using FastQC, and processed reads were mapped to the human genome using TopHat (see, e.g., Trapnell et al., Bioinformatics 25:1105, 2009). Gene-by-gene assessment of the number of fragments strictly and uniquely mapping to the coding region of each gene was conducted using HTSeq-count, a component of the HTSeq package. […] Genes with low counts in either RPF or RNA were excluded from differential analyses. Pathway and network analyses of differential data were conducted using Ingenuity Pathway Analysis (IPA)."}
{"compound": "CC(C=CC(=O)NO)=CC(C)C(=O)c1ccc(N(C)C)cc1", "note": "(stereo not drawn) [TSA, 7-[4-(dimethylamino)phenyl]-N-hydroxy-4,6-dimethyl-7-oxohepta-2,4-dienamide]", "values": [{"measurement": "renormalizing the translational profile of DNASE1L1", "setting": "ENSG00000013563", "value": "− (− = <0.9)"}, {"measurement": "renormalizing the translational profile of KITLG", "setting": "ENSG00000049130", "value": "+ (+ = 0.9 to 1.5)"}, {"measurement": "renormalizing the translational profile of ADAMTS6", "setting": "ENSG00000049192", "value": "− (− = <0.9)"}, {"measurement": "renormalizing the translational profile of LETMD1", "setting": "ENSG00000050426", "value": "− (− = <0.9)"}, {"measurement": "renormalizing the translational profile of PLEKHA5", "setting": "ENSG00000052126", "value": "− (− = <0.9)"}, {"measurement": "renormalizing the translational profile of EIF4B", "setting": "ENSG00000063046", "value": "+ (+ = 0.9 to 1.5)"}, {"measurement": "renormalizing the translational profile of RPL18", "setting": "ENSG00000063177", "value": "− (− = <0.9)"}, {"measurement": "renormalizing the translational profile of HIPK2", "setting": "ENSG00000064393", "value": "− (− = <0.9)"}, {"measurement": "renormalizing the translational profile of ASPM", "setting": "ENSG00000066279", "value": "+ (+ = 0.9 to 1.5)"}, {"measurement": "renormalizing the translational profile of RASSF1", "setting": "ENSG00000068028", "value": "− (− = <0.9)"}, {"measurement": "renormalizing the translational profile of PABPC1", "setting": "ENSG00000070756", "value": "− (− = <0.9)"}, {"measurement": "renormalizing the translational profile of RPL31", "setting": "ENSG00000071082", "value": "− (− = <0.9)"}, {"measurement": "renormalizing the translational profile of PLD1", "setting": "ENSG00000075651", "value": "− (− = <0.9)"}, {"measurement": "renormalizing the translational profile of EDN1", "setting": "ENSG00000078401", "value": "− (− = <0.9)"}, {"measurement": "renormalizing the translational profile of AURKA", "setting": "ENSG00000087586", "value": "++ (++ = 1.5 to 2.0)"}, {"measurement": "renormalizing the translational profile of EPB41L1", "setting": "ENSG00000088367", "value": "+ (+ = 0.9 to 1.5)"}, {"measurement": "renormalizing the translational profile of RPL6", "setting": "ENSG00000089009", "value": "− (− = <0.9)"}, {"measurement": "renormalizing the translational profile of P2RX7", "setting": "ENSG00000089041", "value": "++ (++ = 1.5 to 2.0)"}, {"measurement": "renormalizing the translational profile of KDM2B", "setting": "ENSG00000089094", "value": "− (− = <0.9)"}, {"measurement": "renormalizing the translational profile of RPLP0", "setting": "ENSG00000089157", "value": "− (− = <0.9)"}, {"measurement": "renormalizing the translational profile of IGBP1", "setting": "ENSG00000089289", "value": "− (− = <0.9)"}, {"measurement": "renormalizing the translational profile of IRAK3", "setting": "ENSG00000090376", "value": "+ (+ = 0.9 to 1.5)"}, {"measurement": "renormalizing the translational profile of PABPC4", "setting": "ENSG00000090621", "value": "− (− = <0.9)"}, {"measurement": "renormalizing the translational profile of FMO2", "setting": "ENSG00000094963", "value": "+ (+ = 0.9 to 1.5)"}, {"measurement": "renormalizing the translational profile of ACOT7", "setting": "ENSG00000097021", "value": "− (− = <0.9)"}, {"measurement": "renormalizing the translational profile of ATP5D", "setting": "ENSG00000099624", "value": "− (− = <0.9)"}, {"measurement": "renormalizing the translational profile of LGALS1", "setting": "ENSG00000100097", "value": "− (− = <0.9)"}, {"measurement": "renormalizing the translational profile of EIF3L", "setting": "ENSG00000100129", "value": "− (− = <0.9)"}, {"measurement": "renormalizing the translational profile of RPL3", "setting": "ENSG00000100316", "value": "− (− = <0.9)"}, {"measurement": "renormalizing the translational profile of CEP192", "setting": "ENSG00000101639", "value": "− (− = <0.9)"}, {"measurement": "renormalizing the translational profile of AMMECR1", "setting": "ENSG00000101935", "value": "− (− = <0.9)"}, {"measurement": "renormalizing the translational profile of PLP2", "setting": "ENSG00000102007", "value": "− (− = <0.9)"}, {"measurement": "renormalizing the translational profile of EIF3E", "setting": "ENSG00000104408", "value": "− (− = <0.9)"}, {"measurement": "renormalizing the translational profile of EEF1D", "setting": "ENSG00000104529", "value": "− (− = <0.9)"}, {"measurement": "renormalizing the translational profile of C19orf53", "setting": "ENSG00000104979", "value": "− (− = <0.9)"}, {"measurement": "renormalizing the translational profile of GLTSCR2", "setting": "ENSG00000105373", "value": "+ (+ = 0.9 to 1.5)"}, {"measurement": "renormalizing the translational profile of RAB3D", "setting": "ENSG00000105514", "value": "++ (++ = 1.5 to 2.0)"}, {"measurement": "renormalizing the translational profile of RPL18A", "setting": "ENSG00000105640", "value": "− (− = <0.9)"}, {"measurement": "renormalizing the translational profile of COMP", "setting": "ENSG00000105664", "value": "− (− = <0.9)"}, {"measurement": "renormalizing the translational profile of GLCCI1", "setting": "ENSG00000106415", "value": "+ (+ = 0.9 to 1.5)"}, {"measurement": "renormalizing the translational profile of CORO2A", "setting": "ENSG00000106789", "value": "− (− = <0.9)"}, {"measurement": "renormalizing the translational profile of GDF10", "setting": "ENSG00000107623", "value": "+ (+ = 0.9 to 1.5)"}, {"measurement": "renormalizing the translational profile of RPL28", "setting": "ENSG00000108107", "value": "− (− = <0.9)"}, {"measurement": "renormalizing the translational profile of RPL19", "setting": "ENSG00000108298", "value": "− (− = <0.9)"}, {"measurement": "renormalizing the translational profile of RASD1", "setting": "ENSG00000108551", "value": "− (− = <0.9)"}, {"measurement": "renormalizing the translational profile of NAT9", "setting": "ENSG00000109065", "value": "− (− = <0.9)"}, {"measurement": "renormalizing the translational profile of RPL34", "setting": "ENSG00000109475", "value": "− (− = <0.9)"}, {"measurement": "renormalizing the translational profile of CRYAB", "setting": "ENSG00000109846", "value": "− (− = <0.9)"}, {"measurement": "renormalizing the translational profile of GAPDH", "setting": "ENSG00000111640", "value": "− (− = <0.9)"}, {"measurement": "renormalizing the translational profile of C12orf57", "setting": "ENSG00000111678", "value": "+ (+ = 0.9 to 1.5)"}, {"measurement": "renormalizing the translational profile of MDFI", "setting": "ENSG00000112559", "value": "− (− = <0.9)"}, {"measurement": "renormalizing the translational profile of HBEGF", "setting": "ENSG00000113070", "value": "− (− = <0.9)"}, {"measurement": "renormalizing the translational profile of RPL24", "setting": "ENSG00000114391", "value": "− (− = <0.9)"}, {"measurement": "renormalizing the translational profile of EEF1B2", "setting": "ENSG00000114942", "value": "− (− = <0.9)"}, {"measurement": "renormalizing the translational profile of IFIH1", "setting": "ENSG00000115267", "value": "− (− = <0.9)"}, {"measurement": "renormalizing the translational profile of DPH5", "setting": "ENSG00000117543", "value": "− (− = <0.9)"}, {"measurement": "renormalizing the translational profile of PPL", "setting": "ENSG00000118898", "value": "− (− = <0.9)"}, {"measurement": "renormalizing the translational profile of PLEKHG1", "setting": "ENSG00000120278", "value": "− (− = <0.9)"}, {"measurement": "renormalizing the translational profile of LIAS", "setting": "ENSG00000121897", "value": "− (− = <0.9)"}, {"measurement": "renormalizing the translational profile of GPSM2", "setting": "ENSG00000121957", "value": "++ (++ = 1.5 to 2.0)"}, {"measurement": "renormalizing the translational profile of RPL21", "setting": "ENSG00000122026", "value": "− (− = <0.9)"}, {"measurement": "renormalizing the translational profile of RPL5", "setting": "ENSG00000122406", "value": "− (− = <0.9)"}, {"measurement": "renormalizing the translational profile of INHBA", "setting": "ENSG00000122641", "value": "− (− = <0.9)"}, {"measurement": "renormalizing the translational profile of CIT", "setting": "ENSG00000122966", "value": "+++ (+++ = >2.0)"}, {"measurement": "renormalizing the translational profile of RPL23", "setting": "ENSG00000125691", "value": "− (− = <0.9)"}, {"measurement": "renormalizing the translational profile of LAMP5", "setting": "ENSG00000125869", "value": "− (− = <0.9)"}]}
